Results on three compounds are retold here after patent US20070288088A1, “Drug eluting stent with a biodegradable release layer attached with an electro-grafted primer coating” (priority 2006, published 2007).

For data set [1], the system named is EC's as compared to SMC's. The note with it: EC's versus SMC's; cited from earlier work.
The test system of data set [2] is cells seeded in 96-well microplate. The note with it: control samples. On the procedure: A potential cytotoxicity study of the electro-grafted coatings is conducted in accordance with the standard ISO 10993-5.
The extraction was performed in triplicate with the culture medium (DMEM) containing fetal calf serum, in sterile, closed, chemically inert containers during 96 h at 37° C.
The extract and its dilutions (50% and 10%) were placed on the cells and left in contact for 24 hours, at least. The cytotoxicity was determined by a vital dye, the neutral red.
The means of determination retained were the general morphology of the cell (qualitative evaluation) and the percentage of cell viability (quantitative evaluation) based on that the absorbance obtain by reading at 540 nm, is proportional to the number of living cells (quantitative analysis).
Positive control: the control was performed for each test with a product which provided a reproducible cytotoxic effect under the conditions of the test: a solution of phenol at 3.2 g/l in culture medium (DMEM). The test complied if the percentage of mortality was about 100%.
The test complied if the percentage of cell viability is 100%.

SMILES strings stand for the structures.

Turning to `CO[C@H]1C[C@@H]2CC[C@@H](C)[C@@](O)(O2)C(=O)C(=O)N2CCCC[C@H]2C(=O)O[C@H]([C@H](C)C[C@@H]2CC[C@@H](O)[C@H](OC)C2)CC(=O)[C@H](C)/C=C(\C)[C@@H](O)[C@@H](OC)C(=O)[C@H](C)C[C@H](C)/C=C/C=C/C=C/1C` [Sirolimus], the Threshold toxic concentration entry in data set [1] is recorded as “comparable or even lower against EC's as compared to SMC's”.

As to `CC(=O)O[C@H]1C(=O)[C@@]2(C)[C@H]([C@H](OC(=O)c3ccccc3)[C@]3(O)C[C@H](OC(=O)[C@H](O)[C@@H](NC(=O)c4ccccc4)c4ccccc4)C(C)=C1C3(C)C)[C@]1(OC(C)=O)CO[C@@H]1C[C@@H]2O` [Paclitaxel], the Threshold toxic concentration entry in data set [1] is listed as “comparable or even lower against EC's as compared to SMC's”.

On to `Oc1ccccc1` [Positive control, phenol], for which, in data set [2], the Death % is 99%, the “Qualitative evaluation (neutral red)” value was “Cells don't” and the Viability % came to 1%.
